The values that follow come from BindingDB's records for doi:10.1021/jm00067a022 (Syntex Discovery Research, 1993).

The test can be described thus: Inhibition of lanosterol 14-alpha-demethylase in hamster hepatic microsomes.

`CC(=O)N1CCN(c2ccc(OC[C@@H]3CO[C@@](Cn4ccnc4)(c4ccc(Cl)cc4Cl)O3)cc2)CC1` [Nizoral] yielded a Ki of 25 nM.

The Ki is the equilibrium dissociation constant of an inhibitor or competing ligand from its target. Low values mean a stronger hold on the target, high ones a looser hold on the target.
